Measured values as given in patent US20230310445A1, “LOX ENZYME INHIBITING METHODS AND COMPOSITIONS” (ANOVIA BIOSCIENCES, INC., priority 2020, published 2023).

Key:
[1] = molecular target: T1, Recombinant human LOXL2 (lysyl oxidase like 2) (Homo sapiens, UniProt Q9Y4K0); test: LOXL2 inhibition assay (fluorometric, cadaverine/Amplex Red/HRP); format: biochemical; details: IC50 class; recombinant human LOXL2, cadaverine substrate; read-out: Activity Range LOXL2
T1 construct: purchased R&D systems
T1 sequence (Q9Y4K0 26-774): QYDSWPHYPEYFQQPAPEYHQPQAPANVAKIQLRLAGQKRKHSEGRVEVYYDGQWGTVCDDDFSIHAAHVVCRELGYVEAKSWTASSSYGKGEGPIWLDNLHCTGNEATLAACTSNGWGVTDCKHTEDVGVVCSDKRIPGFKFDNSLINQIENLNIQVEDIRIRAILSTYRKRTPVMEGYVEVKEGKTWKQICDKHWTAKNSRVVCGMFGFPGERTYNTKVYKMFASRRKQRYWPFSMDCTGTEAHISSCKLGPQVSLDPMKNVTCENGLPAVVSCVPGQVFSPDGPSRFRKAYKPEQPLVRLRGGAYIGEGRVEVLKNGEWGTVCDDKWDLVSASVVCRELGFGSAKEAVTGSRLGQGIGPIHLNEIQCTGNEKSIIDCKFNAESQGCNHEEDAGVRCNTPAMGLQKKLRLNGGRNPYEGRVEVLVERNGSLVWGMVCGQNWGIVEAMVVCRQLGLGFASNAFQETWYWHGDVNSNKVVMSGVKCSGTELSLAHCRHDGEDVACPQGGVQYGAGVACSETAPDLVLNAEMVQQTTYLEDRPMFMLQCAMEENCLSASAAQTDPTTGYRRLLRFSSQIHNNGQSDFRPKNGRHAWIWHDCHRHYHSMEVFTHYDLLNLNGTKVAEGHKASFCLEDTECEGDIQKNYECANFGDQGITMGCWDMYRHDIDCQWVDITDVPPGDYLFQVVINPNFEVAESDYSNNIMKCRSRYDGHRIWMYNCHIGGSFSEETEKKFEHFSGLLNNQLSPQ
Protocol: (§1) The ability of compounds to inhibit one or more of the lysyl oxidases LOXL2 and/or LOXL3 was determined using a fluorometric assay. This assay measures the activity of lysyl oxidases by coupling the reaction with horseradish peroxidase-catalyzed […]. The activity assay protocol uses cadaverine as substrate that releases hydrogen peroxide upon transformation by the specific LOX family enzyme present in the sample. Hydrogen peroxide is in turn detected using a red fluorescence substrate for HRP-coupled reactions (Amplex Red Enzyme Assays, Thermo Scientific Fisher). This leads to increase in fluorescence that can be easily detected at Ex/Em=540/590 nm in a fluorescence microplate reader.
Enzymes: Recombinant human LOXL2 (lysyl oxidase like 2) and recombinant human LOXL3 (lysyl oxidase like 3) were purchased from R&D systems and assays were performed in 1.2 M urea, 50 mM sodium borate buffer pH 8.0, and 10 mM CaCl.
Reaction: Final concentration in the LOXL2 and LOXL3 assays were as following and performed in a total volume of […]:
Experimental procedure: 5 μl of freshly prepared reaction buffer were delivered to reaction wells. Compounds were resuspended in 100% DMSO at 10 mM and delivered into buffer using acoustic technology (Echo550; nanoliter range). A 3× solution of LOXL2 or LOXL3 in reaction buffer was prepared (“enzyme solution”) and 5 μL of enzyme solution was added into the reaction wells. Buffer only was added to column 1 for no protein control. Reactions were incubated for 30 minutes at 37° C. A 3×mixture of cadaverine, Amplex Red, and HRP (“Substrate/Detection Mix) was prepared and subsequently 5 μL of the mixture added to each reaction well. Progress of reactions was monitored for 60 minutes at 37° C. using Clariostar plate reader (ex 530-12, ems 600-40). For all activity assays, pan-LOX inhibitor CCT365623 (Tang et al, 2017) and LOXL2/LOXL3 inhibitor PAT-1251 (PharmaKea) were included as standards.
Data analysis: Slope of the linear portion of the progress curve was calculated using Clariostar software. Typical analysis interval was between 8-30 min, but varied between experiments. The background subtracted signals (No protein wells are considered as background) were converted to % activity relative to DMSO controls. Data was analyzed using GraphPad Prism 4 with “sigmoidal dose-response (variable slope)”; 4 parameters with Hill Slope. Constraints: Bottom=Constant equal to 0. Top=Must be less than 120.

[2] = molecular target: T2, Bovine lysyl oxidase (LOX) (Bos taurus, UniProt P33072); test: LOX inhibition assay (fluorometric, cadaverine/Amplex Red/HRP); format: biochemical; details: IC50 class; bovine tendon LOX, cadaverine substrate; read-out: Activity Range LOX
T2 construct: from tissue; host or cells: adult bovine tendon
T2 sequence (P33072 170-418): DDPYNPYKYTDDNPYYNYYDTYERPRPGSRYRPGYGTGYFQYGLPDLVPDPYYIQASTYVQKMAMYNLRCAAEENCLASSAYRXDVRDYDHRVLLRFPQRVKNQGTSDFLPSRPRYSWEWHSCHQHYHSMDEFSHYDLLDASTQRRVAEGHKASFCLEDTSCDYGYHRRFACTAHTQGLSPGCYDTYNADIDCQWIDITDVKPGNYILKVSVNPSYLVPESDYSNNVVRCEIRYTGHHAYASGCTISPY
Protocol: as §1, with “prototypic LOX” for “one or more of the lysyl oxidases LOXL2 and/or LOXL3”, “prototypic” for “the specific”, “LOX” for “LOX family”
Enzyme: Bovine lysyl oxidase (LOX) was extracted by adapting the methodology from [Kagan et al. 1979 and Borel et al. 2001.] from bovine tendon: Frozen adult bovine tendon was placed in room temperature water to defrost, and then membranes were removed and the remaining tissue cut into 1 cm pieces. The material was first passed through a course mesh meat grinder, and this mince was passed through a fine mesh grinder. The mince was homogenized in 10 v/w of buffer (16 mM sodium phosphate buffer pH 7.8, 400 mM NaCl) using a Waring blender. The homogenate was centrifuged at 15,000×g for 15 min at 4° C. After centrifugation, the supernatant was discarded and the pellets resuspended in 10 volumes of the same buffer. The mixture was blended again and centrifuged with the same settings. This time the pellets were blended in 3 volumes of extraction buffer (16 mM sodium phosphate buffer pH 7.8) and left to incubate at 4° C. for 2 h. After this time, the slurry was centrifuged with the same settings as described above. The supernatant was used in an ultrafiltration step to remove large proteins by size exclusion through a 30 kDalton filter (EMD Millipore). The filtrate was mixed with DEAE Sephadex (GE Healthcare), or passed over a MonoQ FPLC column. After two washes, one in 16 mM sodium phosphate buffer pH 7.8, 380 mM NaCl, and another in 16 mM sodium phosphate buffer pH 7.8, the proteins were eluted with 16 mM sodium phosphate pH 7.8, 10 μM CuSO4, and 4 M urea. Fractions containing Lox activity were collected and stored frozen at −70° C.
Reaction: Final concentration in the LOX assay was as following and performed in a total volume of […]:
Experimental procedure: 7 μl of freshly prepared reaction buffer were delivered to reaction wells. Compounds were resuspended in 100% DMSO at 10 mM and delivered into buffer using acoustic technology (Echo550; nanoliter range). A 2.85× solution of LOX protein in reaction buffer was prepared (“LOX solution”) and 7 μl of LOX solution was added into the reaction wells. Buffer only was added to column 1 for no protein control. Reactions were incubated for 30 minutes at 37° C. A 3.33× mixture of cadaverine, Amplex Red, and HRP (“Substrate/Detection Mix) was prepared and subsequently 6 μL of the mixture was added to each reaction well. Progress of reactions was monitored for 120 minutes at 37° C. using Clariostar plate reader (ex530-12, ems 600-40). For all activity assays, pan-LOX inhibitor CCT365623 (Tang et al, 2017) and LOXL2/LOXL3 inhibitor PAT-1251 (PharmaKea) were included as standards.
Data analysis: Slope of the linear portion of the progress curve was calculated using Clariostar software. Typical analysis interval was between 20-50 min, but varied between experiments. The background subtracted signals (No protein wells were considered as background) were converted to % activity relative to DMSO controls. Data was analyzed using GraphPad Prism 4 with “sigmoidal dose-response (variable slope)”; 4 parameters with Hill Slope. Constraints: Bottom=Constant equal to 0. Top=Must be less than 120.

IC50 [1] [µM] | IC50 [2] [µM] | Compound
0.5 to 1 | > 30 | CS(=O)(=O)N1C[C@H](Oc2cc(CN)ccc2F)C[C@H](c2ccccc2F)C1 (racemic) [Example 71, cis-(4-Fluoro-3-((-5-(2-fluorophenyl)-1-(methylsulfonyl)piperidin-3-yl)oxy)phenyl)methanamine 2,2,2-trifluoroacetate]
1 to 30 | > 30 | NCc1cccc(O[C@@H]2C[C@H](c3ccccc3)CN(C(=O)N3CCOCC3)C2)c1 (racemic) [Example 72]
1 to 30 | > 30 | NCc1cccc(O[C@@H]2C[C@H](c3ccccc3)CN(C(=O)N3CCS(=O)(=O)CC3)C2)c1 (racemic) [Example 73, cis-(3-(3-(Aminomethyl)phenoxy)-5-phenylpiperidin-1-yl)(1,1-dioxidothiomorpholino)methanone]
≤ 0.5 | ≤ 0.5 | NCc1ccc(S(=O)(=O)N2C[C@@H](C(=O)N3CCS(=O)(=O)CC3)C[C@@H](c3ccccc3)C2)s1 (racemic) [Example 75, cis-(1-((5-(Aminomethyl)thiophen-2-yl)sulfonyl)-5-phenylpiperidin-3-yl)(1,1-dioxidothiomorpholino)methanone 2,2,2-trifluoroacetate]
≤ 0.5 | ≤ 0.5 | CS(=O)(=O)N1CCN(C(=O)[C@H]2C[C@@H](c3ccccc3)CN(S(=O)(=O)c3ccc(CN)s3)C2)CC1 (racemic) [Example 76]
1 to 30 | > 30 | NCc1cccc(S(=O)(=O)N2C[C@@H](C(=O)N3CCS(=O)(=O)CC3)C[C@@H](c3ccccc3)C2)c1 (racemic) [Example 77]
0.5 to 1 | > 30 | CS(=O)(=O)N1CCN(C(=O)[C@H]2C[C@@H](c3ccccc3)CN(S(=O)(=O)c3cccc(CN)c3)C2)CC1 (racemic) [Example 78, cis-(1-((3-(Aminomethyl)phenyl)sulfonyl)-5-phenylpiperidin-3-yl)(4-(methylsulfonyl)piperazin-1-yl)methanone 2,2,2-trifluoroacetate]
1 to 30 | > 30 | NCc1cccc(O[C@H]2C[C@H](c3ccccc3)CN(C(=O)N3CCS(=O)(=O)CC3)C2)c1 (racemic) [Example 82, trans-(3-(3-(Aminomethyl)phenoxy)-5-phenylpiperidin-1-yl)(1,1-dioxidothiomorpholino)methanone]
≤ 0.5 | 1 to 30 | CS(=O)(=O)N1CCN(C(=O)[C@@H]2C[C@@H](c3ccccc3)CN(S(=O)(=O)c3cccc(CN)c3)C2)CC1 (racemic) [Example 84, trans-(1-((3-(Aminomethyl)phenyl)sulfonyl)-5-phenylpiperidin-3-yl)(4-(methylsulfonyl)piperazin-1-yl)methanone 2,2,2-trifluoroacetate]
0.5 to 1 | > 30 | CS(=O)(=O)N1C[C@@H](Oc2cc(CN)ccc2F)C[C@H](c2ccccc2)C1 (racemic) [Example 90, trans-(4-Fluoro-3-((-1-(methylsulfonyl)-5-phenylpiperidin-3-yl)oxy)phenyl)Methanamine 2,2,2-trifluoroacetate]
≤ 0.5 | > 30 | CS(=O)(=O)N1C[C@@H](Oc2cc(CN)ccc2F)C[C@H](c2ccccc2F)C1 (racemic) [Example 93, trans-(4-Fluoro-3-((-5-(2-fluorophenyl)-1-(methylsulfonyl)piperidin-3-yl)oxy)phenyl)methanamine 2,2,2-trifluoroacetate]
0.5 to 1 | > 30 | CN(C)C(=O)N1C[C@@H](c2ccccc2)C[C@H](S(=O)(=O)c2cccc(CN)c2)C1 (racemic) [Example 94, trans-3-((3-(Aminomethyl)phenyl)sulfonyl)-N,N-dimethyl-5-phenylpiperidine-1-carboxamide 2,2,2-trifluoroacetate]
1 to 30 | > 30 | NCc1cccc(S(=O)(=O)N2C[C@@H](C(=O)N3CCS(=O)(=O)CC3)C[C@@H](C(F)(F)F)C2)c1 (racemic) [Example 99, cis-(1-((3-(Aminomethyl)phenyl)sulfonyl)-5-(trifluoromethyl)piperidin-3-yl)(1,1-dioxidothiomorpholino)methanone 2,2,2-trifluoroacetate]
> 30 | > 30 | CC(N)c1cccc(S(=O)(=O)N2C[C@@H](C(=O)N3CCOCC3)C[C@@H](c3ccccc3)C2)c1 (mixture of isomers) [Example 102RAC, cis-(1-((3-(1-Aminoethyl)phenyl)sulfonyl)-5-phenylpiperidin-3-yl)(morpholino)methanone 2,2,2-trifluoroacetate]
